The record followed here is patent US20260250260A1, “POLYMORPH OF 7,8-DIHYDROXYFLAVONE, AND PREPARATION METHOD THEREFOR” (HUIANKAI (XIAMEN) PHARMACEUTICAL TECHNOLOGY CO., LTD., priority 2022, published 2026).

What all share (type): physicochemical
A short description of data set [1]: Stability of different 7,8-dihydroxyflavone crystal forms (XRPD characterization). The settings on record: for crystal form stability (general statement): performance embodiment, no conditions stated. The protocol: The stability of different 7,8-dihydroxyflavonoid crystal forms was studied under high temperature (60° C.), high humidity (25° C./92.5% RH), illumination (25° C./4500 Lux), and acceleration (40° C./75% RH) conditions, and samples were taken for XRPD characterization on day 7 and day 15, respectively.

A short description of data set [2]: Dynamic solubility in biological medium (FaSSIF, FeSSIF, FaSSGF) and water. The protocol:
The 20 mg of 7,8-dihydroxyflavones in different crystal forms were weighed out separately and added into 4.0 mL of biological medium or water, and shaken at a constant temperature of 37° C. for 24 h. Samples were taken at 0.5 h, 2 h and 24 h, respectively, and the sampled solutions were filtered through 0.22 μm aquo-system filter membranes. Signal peak areas of the solutions were measured by HPLC, and finally, concentrations of the compounds in the solutions were calculated based on the peak areas, HPLC standard curves of the raw materials, and the dilution times. In addition, the supernatant at 24 h was taken to test pH, and the residual solid was subjected to the XRPD test. [table]

The nature of data set [3]: Dynamic vapor sorption analysis (DVS). The settings on record: range of 0%-95% relative humidity; mass gain relative to initial mass. On the procedure:
Dynamic vapor sorption and desorption analysis was measured using DVS Intrinsic (SMS, UK). The test was performed in gradient mode with a humidity change of 50%-95%-0%-50%, with a change of 10% per humidity gradient in the range of 0% to 90%. The gradient endpoint was determined by dm/dt; the gradient endpoint lies where the dm/dt was less than 0.002% and maintained for 10 minutes. After the test was completed, the samples were analyzed by XRPD to confirm whether the solid morphology had changed.

Data set [4] is described as follows: Crystal form conversion of comparative crystal forms on drying, at room temperature or on heating.
Setting [5] is: FaSSGF pH 1.6, residual solid after 24 h at 37° C.
[6] abbreviates: FaSSGF pH 1.6, supernatant at 24 h.
The mark [7] stands for this setting: FaSSIF pH 6.5, residual solid after 24 h at 37° C.
Where [8] appears, read: FaSSIF pH 6.5, supernatant at 24 h.
The mark [9] stands for this setting: FeSSIF pH 5.0, residual solid after 24 h at 37° C.
Setting [10] is: FeSSIF pH 5.0, supernatant at 24 h.
Where [11] appears, read: Water, residual solid after 24 h at 37° C.

≈ marks a conversion by molar mass, not a printed value.

As for `O=c1cc(-c2ccccc2)oc2c(O)c(O)ccc12` [Crystal form C, 7,8-dihydroxyflavone], the “Result on day 7 (XRPD)” value in data set [1] (Acceleration 40° C./75% RH), in data set [1] (High humidity 25° C./92.5% RH), in data set [1] (High temperature 60° C.) and in data set [1] (Illumination 25° C./4500 Lux) was “No change” throughout. Besides, the “Result on day 15 (XRPD)” value in data set [1] (Acceleration 40° C./75% RH), in data set [1] (High humidity 25° C./92.5% RH), in data set [1] (High temperature 60° C.) and in data set [1] (Illumination 25° C./4500 Lux) was “No change” each time. The “crystal form stability (general statement)” value (shortened to “crystal form stability”) in data set [1] is “stable and does not suffer from crystal transformation”. The “Solubility 0.5 h” value amounted to 2.5 µg/mL (≈ 9.83 µM) in data set [2] (FaSSGF pH 1.6, 37° C.); 9.0 µg/mL (≈ 35.4 µM) in data set [2] (FaSSIF pH 6.5, 37° C.); 33.5 µg/mL (≈ 132 µM) in data set [2] (FeSSIF pH 5.0, 37° C.); 2.6 µg/mL (≈ 10.2 µM) in data set [2] (Water, 37° C.). In addition, the “Solubility 2 h” value in data set [2] (FaSSGF pH 1.6, 37° C.) came to 2.2 µg/mL (≈ 8.65 µM); in data set [2] (FaSSIF pH 6.5, 37° C.), 10.2 µg/mL (≈ 40.1 µM); in data set [2] (FeSSIF pH 5.0, 37° C.) it was 33.9 µg/mL (≈ 133 µM); in data set [2] (Water, 37° C.), 3.1 µg/mL (≈ 12.2 µM). The “Solubility 24 h” value in data set [2] (FaSSGF pH 1.6, 37° C.) worked out at 2.4 µg/mL (≈ 9.44 µM); in data set [2] (FaSSIF pH 6.5, 37° C.), 9.8 µg/mL (≈ 38.5 µM); in data set [2] (FeSSIF pH 5.0, 37° C.) it was 33.2 µg/mL (≈ 131 µM); in data set [2] (Water, 37° C.) it was 3.3 µg/mL (≈ 13 µM). The “Residual solid XRPD” value in data set [2] (setting [5]), in data set [2] (setting [7]), in data set [2] (setting [9]) and in data set [2] (setting [11]) was “Crystal form C” each time. The “Final pH” value was 1.6 in data set [2] (setting [6]); 6.5 in data set [2] (setting [8]); 5.0 in data set [2] (setting [10]); 5.5 in data set [2] (Water, supernatant at 24 h). Besides, the “weight gain in the dynamic vapor sorption plot” value (“weight gain” below) in data set [3] is listed as “less than 0.1%”.
Turning to `O=c1cc(-c2ccccc2)oc2c(O)c(O)ccc12` [Crystal form N, 7,8-dihydroxyflavone], the “Result on day 7 (XRPD)” value in data set [1] (High temperature 60° C.) is reported as “No change”. Also, the “Result on day 15 (XRPD)” value in data set [1] (High temperature 60° C.) is “No change”. Besides, the “crystal form stability” value in data set [1] is “stable and does not suffer from crystal transformation”. Further, the “Solubility 0.5 h” value in data set [2] (FaSSGF pH 1.6, 37° C.) stood at 13.6 µg/mL (≈ 53.5 µM); in data set [2] (FaSSIF pH 6.5, 37° C.) it was 35.8 µg/mL (≈ 141 µM); in data set [2] (FeSSIF pH 5.0, 37° C.), 111.9 µg/mL (≈ 440 µM); in data set [2] (Water, 37° C.) it was 15.1 µg/mL (≈ 59.4 µM). Further, the “Solubility 2 h” value in data set [2] (FaSSGF pH 1.6, 37° C.) was 18.7 µg/mL (≈ 73.6 µM); in data set [2] (FaSSIF pH 6.5, 37° C.), 38.7 µg/mL (≈ 152 µM); in data set [2] (FeSSIF pH 5.0, 37° C.) it was 114.2 µg/mL (≈ 449 µM); in data set [2] (Water, 37° C.), 11.8 µg/mL (≈ 46.4 µM). Besides, the “Solubility 24 h” value in data set [2] (FaSSGF pH 1.6, 37° C.) is 16.1 µg/mL (≈ 63.3 µM); in data set [2] (FaSSIF pH 6.5, 37° C.) it was 36.5 µg/mL (≈ 144 µM); in data set [2] (FeSSIF pH 5.0, 37° C.), 107.6 µg/mL (≈ 423 µM); in data set [2] (Water, 37° C.), 3.1 µg/mL (≈ 12.2 µM). In addition, the “Residual solid XRPD” value in data set [2] (setting [5]) was “Crystal form N”; in data set [2] (setting [7]), “Crystal form N”; in data set [2] (setting [9]), “Crystal form N”; in data set [2] (setting [11]), “Crystal form C”. For the same compound, the “Final pH” value is on record as 1.6 in data set [2] (setting [6]); 6.4 in data set [2] (setting [8]); 5.0 in data set [2] (setting [10]); 5.2 in data set [2] (Water, supernatant at 24 h). Also, the “weight gain” value in data set [3] is recorded as “less than 0.1%”.
Consider `O=c1cc(-c2ccccc2)oc2c(O)c(O)ccc12` [Crystal form P, 7,8-dihydroxyflavone], for which the “Result on day 7 (XRPD)” value in data set [1] (Acceleration 40° C./75% RH), in data set [1] (High humidity 25° C./92.5% RH), in data set [1] (High temperature 60° C.) and in data set [1] (Illumination 25° C./4500 Lux) was “No change” each time. Besides, the “Result on day 15 (XRPD)” value in data set [1] (Acceleration 40° C./75% RH), in data set [1] (High humidity 25° C./92.5% RH), in data set [1] (High temperature 60° C.) and in data set [1] (Illumination 25° C./4500 Lux) was “No change” in each case. Moreover, the “crystal form stability” value in data set [1] was “stable and does not suffer from crystal transformation”. Besides, the “Solubility 0.5 h” value was 8.6 µg/mL (≈ 33.8 µM) in data set [2] (FaSSGF pH 1.6, 37° C.); 24.3 µg/mL (≈ 95.6 µM) in data set [2] (FaSSIF pH 6.5, 37° C.); 74.5 µg/mL (≈ 293 µM) in data set [2] (FeSSIF pH 5.0, 37° C.); 11.2 µg/mL (≈ 44.1 µM) in data set [2] (Water, 37° C.). For the same compound, the “Solubility 2 h” value in data set [2] (FaSSGF pH 1.6, 37° C.) was 8.6 µg/mL (≈ 33.8 µM); in data set [2] (FaSSIF pH 6.5, 37° C.), 25.9 µg/mL (≈ 102 µM); in data set [2] (FeSSIF pH 5.0, 37° C.), 74.3 µg/mL (≈ 292 µM); in data set [2] (Water, 37° C.) it was 10.6 µg/mL (≈ 41.7 µM). Besides, the “Solubility 24 h” value in data set [2] (FaSSGF pH 1.6, 37° C.) is 5.6 µg/mL (≈ 22 µM); in data set [2] (FaSSIF pH 6.5, 37° C.) it was 20.5 µg/mL (≈ 80.6 µM); in data set [2] (FeSSIF pH 5.0, 37° C.), 71.2 µg/mL (≈ 280 µM); in data set [2] (Water, 37° C.), 10.6 µg/mL (≈ 41.7 µM). The “Residual solid XRPD” value in data set [2] (setting [5]), in data set [2] (setting [7]), in data set [2] (setting [9]) and in data set [2] (setting [11]) was “Crystal form P” throughout. Further, the “Final pH” value turned out to be 1.6 in data set [2] (setting [6]); 6.4 in data set [2] (setting [8]); 5.0 in data set [2] (setting [10]); 4.6 in data set [2] (Water, supernatant at 24 h). For the same compound, the “weight gain” value in data set [3] is “less than 0.1%”.
Consider `O=c1cc(-c2ccccc2)oc2c(O)c(O)ccc12` [crystal form A, 7,8-dihydroxyflavone], for which the crystal form conversion entry was “convert to mixed crystals containing the crystal form F” in data set [4] (heated to 130° C.); “convert to mixed crystals containing the crystal form F and the crystal form J” in data set [4] (heated to 160° C.); “convert to the crystal form N” in data set [4] (under sufficient drying).
In the case of `O=c1cc(-c2ccccc2)oc2c(O)c(O)ccc12` [crystal form B, 7,8-dihydroxyflavone], the crystal form conversion result in data set [4] (at 180° C.) was “convert to mixed crystals containing the crystal form F and the crystal form J”; in data set [4] (at room temperature), “tend to convert to the crystal form C”; in data set [4] (heated to 110° C.), “some characteristic peaks of the crystal form J will appear”.
As for `O=c1cc(-c2ccccc2)oc2c(O)c(O)ccc12` [crystal form E, 7,8-dihydroxyflavone], the crystal form conversion result in data set [4] (at room temperature) is recorded as “convert to the crystal form N”.
As to `O=c1cc(-c2ccccc2)oc2c(O)c(O)ccc12` [crystal form F, 7,8-dihydroxyflavone], the crystal form conversion entry is “convert to the crystal form B” in data set [4] (at room temperature); “convert to mixed crystals of the crystal form J and the crystal form P” in data set [4] (heated to 220° C.).
Regarding `O=c1cc(-c2ccccc2)oc2c(O)c(O)ccc12` [crystal form G, 7,8-dihydroxyflavone], the crystal form conversion entry in data set [4] (heated to 140° C.) was “convert to the crystal form T which has a small amount of crystal form J”.
With `O=c1cc(-c2ccccc2)oc2c(O)c(O)ccc12` [crystal form H, 7,8-dihydroxyflavone], the crystal form conversion result in data set [4] (at room temperature) is on record as “convert to other crystal forms”.
`O=c1cc(-c2ccccc2)oc2c(O)c(O)ccc12` [crystal form K, 7,8-dihydroxyflavone]: in data set [4] (heated to 150° C. and then cooled to room temperature), the crystal form conversion result was “convert to mixed crystals of the crystal form F and the crystal form J”.
As for `O=c1cc(-c2ccccc2)oc2c(O)c(O)ccc12` [crystal form M, 7,8-dihydroxyflavone], the crystal form conversion result in data set [4] (at room temperature) was “convert to the crystal form C”.
Consider `O=c1cc(-c2ccccc2)oc2c(O)c(O)ccc12` [crystal form O, 7,8-dihydroxyflavone], for which the crystal form conversion entry in data set [4] (at room temperature) was “convert to the crystal form C”.
Turning to `O=c1cc(-c2ccccc2)oc2c(O)c(O)ccc12` [crystal form Q, 7,8-dihydroxyflavone], the crystal form conversion result in data set [4] (at room temperature) is “convert to the crystal form C”.
Still for that read-out and setting: as for `O=c1cc(-c2ccccc2)oc2c(O)c(O)ccc12` [crystal form R, 7,8-dihydroxyflavone], the entry is “cannot exist at room temperature for a long period”.
As to `O=c1cc(-c2ccccc2)oc2c(O)c(O)ccc12` [crystal form S, 7,8-dihydroxyflavone], in data set [4] (at room temperature), the crystal form conversion result was “convert to the crystal form C”.
In the case of `O=c1cc(-c2ccccc2)oc2c(O)c(O)ccc12` [crystal form T, 7,8-dihydroxyflavone], in data set [4] (at room temperature), the crystal form conversion entry is on record as “cannot exist at room temperature for a long period”.
